# From patent publication US20140364493A1, “METHOD OF INHIBITING REMNANT LIPOPROTEIN PRODUCTION” (Japan Tobacco Inc., priority 2003, published 2014)
# Legend:
# [1] = test system: remnant lipoprotein production in plasma of healthy subject; assay: In vitro effect on remnant lipoprotein production in plasma (RLP-cholesterol JIMRO II); type: biochemical, human; conditions: 37° C.
# Protocol: Compound A, Compound B, Compound C and Compound D were previously dissolved in dimethyl sulfoxide (DMSO). Plasma (200 μL) of healthy subject, and a solution (2 μL) of each compound in DMSO or DMSO (2 μL) were added into a microtube. On the other hand, a monoclonal antibody against human CETP was diluted with physiological saline and added into a microtube together with plasma (190 μL) of healthy subject and a diluted solution (10 μL) of the monoclonal antibody or physiological saline (10 μL). […] After ice-cooling, the cholesterol amount in the remnant fraction was measured using “RLP-cholesterol “JIMRO II”” (manufactured by Japan Immunoresearch Laboratories Co., Ltd.). The difference in the measured values from incubation of solvent alone at 4° C. and 37° C., namely, an increase in the remnant cholesterol was taken as a 100% production amount of remnant lipoprotein, and the percent of decrease in the measured values of incubation at 37° C. with the addition of each compound or the antibody was taken as percent inhibition of remnant lipoprotein production.
# [2] = test system: cholesteryl ester transfer from donor lipoprotein to remnant lipoprotein; assay: Cholesteryl ester transfer from donor lipoprotein ([3H]CE-HDL3) to remnant lipoprotein fraction in plasma; type: biochemical, human; conditions: [3H]CE-HDL3-containing plasma, 37° C.
# Protocol: (§1) Potassium bromide (KBr) was added to plasma (40 mL) of healthy subject and the mixture was adjusted to have a specific density d=1.125 g/mL. The mixture was subjected to density gradient centrifugation (227,000×g, 4° C., 17 hr) and a fraction showing a specific density of d>1.125 g/mL (HDL3 fraction) was harvested. The obtained fraction was dialyzed against PBS solution [10 mmol/L Na2HPO4; 10 mmol/L NaH2PO4; 0.15 mol/L NaCl; 1 mmol/L EDTA (pH 7.4)]. Then, tritium-labeled cholesterol (37 MBq) was dissolved in 95% ethanol, gradually added to the above-mentioned HDL3 fraction with stirring and incubated at 37° C. for 18 hr. [By this operation, tritium-labeled cholesterol was esterified by the action of lecithin cholesterol acyl transferase (LCAT) present on the HDL3 surface and taken up into HDL3 as tritium-labeled cholesteryl ester ([^3H]CE)]. After incubation, KBr was added, the mixture was adjusted to have a specific density d=1.21 g/mL, subjected to density gradient centrifugation (227,000×g, 4° C., 17 hr) and a fraction of specific density […] was harvested. The obtained fraction was dialyzed against the aforementioned PBS solution to give HDL3 incorporating [^3H]CE ([^3H]CE-HDL3, specific density: 1.125<d<1.21, specific activity: 22,000-33,000 dpm/μL), which was used as a donor lipoprotein.
# The donor lipoprotein obtained above was added to the plasma of healthy subject to prepare a [^3H]CE-HDL3-containing plasma (2,000-4,000 dpm/μL). Compound A, Compound B, Compound C and Compound D were dissolved in dimethyl sulfoxide (DMSO). A solution of each compound in DMSO (1 μL) or DMSO (1 μL), and the [^3H]CE-HDL3-containing plasma (100 μL) were added into a microtube. On the other hand, the monoclonal antibody was diluted with physiological saline and added into a microtube together with a diluted solution (5 μL) of the monoclonal antibody or physiological saline (5 μL), and [^3H]CE-HDL3 containing plasma (95 μL). […] After ice-cooling, a remnant fraction was harvested using “RLP-cholesterol “JIMRO II”” (manufactured by Japan Immunoresearch Laboratories Co., Ltd.), and the radioactivity in the fraction was measured with a liquid scintillation counter. The difference in the measured values from incubation of solvent alone at 4° C. and 37° C. was taken as a 100% cholesteryl ester transfer activity, and the percent of decrease in the measured values of incubation at 37° C. with the addition of each compound or the antibody was taken as percent inhibition of cholesteryl ester transfer.
# CETP = biological target: T1, CETP (Homo sapiens, UniProt P11597); assay: CETP activity in [3H]CE-HDL3-containing plasma (radioactivity in HDL fraction); type: biochemical; conditions: 37° C.
# T1 construct: added to the plasma of healthy subject to prepare a [^3H]CE-HDL3-containing plasma; from tissue; host or cells: plasma of healthy subject
# T1 sequence (P11597 18-493): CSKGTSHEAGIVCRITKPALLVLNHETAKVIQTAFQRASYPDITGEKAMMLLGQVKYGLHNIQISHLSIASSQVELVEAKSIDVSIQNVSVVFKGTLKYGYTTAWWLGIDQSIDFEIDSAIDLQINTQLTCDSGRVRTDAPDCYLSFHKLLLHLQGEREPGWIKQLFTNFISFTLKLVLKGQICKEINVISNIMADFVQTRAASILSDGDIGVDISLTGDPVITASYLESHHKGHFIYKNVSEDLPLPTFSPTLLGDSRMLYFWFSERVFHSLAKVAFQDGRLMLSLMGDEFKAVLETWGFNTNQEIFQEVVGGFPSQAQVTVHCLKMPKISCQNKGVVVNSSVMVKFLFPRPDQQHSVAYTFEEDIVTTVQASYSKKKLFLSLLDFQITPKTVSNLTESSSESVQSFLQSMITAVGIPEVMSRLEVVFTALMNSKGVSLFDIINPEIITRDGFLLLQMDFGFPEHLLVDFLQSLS
# Protocol: as §1
# The donor lipoprotein obtained above was added to the plasma of healthy subject to prepare a [^3H]CE-HDL3-containing plasma (2,000-4,000 dpm/μL). […] A solution of each compound in DMSO (1 μL) or DMSO (1 μL), and the [^3H]CE-HDL3-containing plasma (100 μL) were added into a microtube. On the other hand, the monoclonal antibody was diluted with physiological saline and added into a microtube together with a diluted solution (5 μL) of the monoclonal antibody or physiological saline (5 μL), and [^3H]CE-HDL3 containing plasma (95 μL). […] After ice-cooling, a remnant fraction was harvested using “RLP-cholesterol “JIMRO II”” (manufactured by Japan Immunoresearch Laboratories Co., Ltd.), and the radioactivity in the fraction was measured with a liquid scintillation counter. The difference in the measured values from incubation of solvent alone at 4° C. and 37° C. was taken as a 100% cholesteryl ester transfer activity, and the percent of decrease in the measured values of incubation at 37° C. with the addition of each compound or the antibody was taken as percent inhibition of cholesteryl ester transfer.
# The CETP activity was measured according to the method shown below using a part of the same plasma after incubation. After ice-cooling, plasma (80 μL) was separated and a TBS solution [80 μL, 20 mmol/L Tris; 0.15 mol/L NaCl (pH 7.4)] containing 50 mmol/L magnesium chloride and 0.1% dextran sulfate was added to each microtube and thoroughly stirred. After standing at 4° C. for 30 min, the mixture was centrifuged (10,000×g, 4° C., 10 min.), and the radioactivity in the obtained supernatant (HDL fraction) was measured with a scintillation counter. The difference in the measured values from incubation of solvent alone at 4° C. and 37° C. was taken as a 100% CETP activity, and the percent of decrease in the measured values of incubation at 37° C. with the addition of each compound or the antibody was taken as percent inhibition of CETP activity. The above results are shown in the following.
Structure (SMILES),"Inhibition (%) of remnant lipoprotein production ([1]; 0.01 μM, 4 hr)","Inhibition (%) of remnant lipoprotein production ([1]; 0.03 μM, 4 hr)","Inhibition (%) of remnant lipoprotein production ([1]; 0.1 μM, 4 hr)","Inhibition (%) of remnant lipoprotein production ([1]; 0.3 μM, 4 hr)","Inhibition (%) of remnant lipoprotein production ([1]; 1 μM, 4 hr)","Inhibition (%) of cholesteryl ester transfer to remnant fraction ([2]; 0.01 μM, 4 hr)","Inhibition (%) of cholesteryl ester transfer to remnant fraction ([2]; 0.03 μM, 4 hr)","Inhibition (%) of cholesteryl ester transfer to remnant fraction ([2]; 0.1 μM, 4 hr)","Inhibition (%) of cholesteryl ester transfer to remnant fraction ([2]; 0.3 μM, 4 hr)","Inhibition (%) of cholesteryl ester transfer to remnant fraction ([2]; 1 μM, 4 hr)",also measured
"CCC(CC)CC1(C(=O)Nc2ccccc2SC(=O)C(C)C)CCCCC1 [Compound A, S-{2-([[1-(2-ethylbutyl)cyclohexyl]carbonyl]amino)phenyl}2-methylpropanethioate]",,,,,,,,,,,"Inhibition (%) of remnant lipoprotein production ([1]; 3 μM, 6 hr): 25%; Inhibition (%) of remnant lipoprotein production ([1]; 10 μM, 6 hr): 54%; Inhibition (%) of remnant lipoprotein production ([1]; 30 μM, 6 hr): 77%; Inhibition (%) of cholesteryl ester transfer to remnant fraction ([2]; 3 μM, 6 hr): 21%; Inhibition (%) of cholesteryl ester transfer to remnant fraction ([2]; 10 μM, 6 hr): 29%; Inhibition (%) of cholesteryl ester transfer to remnant fraction ([2]; 30 μM, 6 hr): 92%; Inhibition (%) of CETP activity (CETP; 3 μM, 6 hr): 3%; Inhibition (%) of CETP activity (CETP; 10 μM, 6 hr): 34%; Inhibition (%) of CETP activity (CETP; 30 μM, 6 hr): 75%"
"CCN(C[C@H]1CC[C@H](CC(=O)O)CC1)c1cc(C)c(C(F)(F)F)cc1CN(Cc1cc(C(F)(F)F)cc(C(F)(F)F)c1)c1nnn(C)n1.CS(=O)(=O)O [Compound B, trans-(4-{[N-(2-{[N′-[3,5-bis(trifluoromethyl)benzyl]-N′-(2-methyl-2H-tetrazol-5-yl)amino]methyl}-5-methyl-4-trifluoromethylphenyl)-N-ethylamino]methyl}cyclohexyl)acetic acid methanesulfonate]",29%,36%,42%,52%,84%,15%,26%,55%,89%,100%,"Inhibition (%) of CETP activity (CETP; 0.01 μM, 4 hr): 10%; Inhibition (%) of CETP activity (CETP; 0.03 μM, 4 hr): 25%; Inhibition (%) of CETP activity (CETP; 0.1 μM, 4 hr): 53%; Inhibition (%) of CETP activity (CETP; 0.3 μM, 4 hr): 74%; Inhibition (%) of CETP activity (CETP; 1 μM, 4 hr): 86%"
"CCN(CC1CCCC1)c1cc2c(cc1CN(Cc1cc(C#N)cc(C(F)(F)F)c1)C(=O)OC)CCC2 [Compound C, methyl (3-cyano-5-trifluoromethylbenzyl)-[6-(N-cyclopentylmethyl-N-ethylamino)indan-5-ylmethyl]-carbamate]",,,21%,34%,41%,,,−25%,9%,35%,"Inhibition (%) of remnant lipoprotein production ([1]; 3 μM, 4 hr): 93%; Inhibition (%) of cholesteryl ester transfer to remnant fraction ([2]; 3 μM, 4 hr): 92%; inhibition at 0.1 µM (CETP; 0.1 μM, 4 hr): 6%; inhibition at 0.3 µM (CETP; 0.3 μM, 4 hr): 12%; inhibition at 1 µM (CETP; 1 μM, 4 hr): 31%; inhibition at 3 µM (CETP; 3 μM, 4 hr): 57%"
"CCOC(=O)N1c2ccc(C(F)(F)F)cc2[C@@H](N(Cc2cc(C(F)(F)F)cc(C(F)(F)F)c2)C(=O)OC)C[C@H]1CC [Compound D, ethyl (2R,4S)-4-[[3,5-bis(trifluoromethyl)benzyl](methoxycarbonyl)amino]-2-ethyl-6-(trifluoromethyl)-3,4-dihydroquinoline-1(2H)-carboxylic acid ester]",38%,32%,44%,59%,62%,12%,28%,54%,78%,94%,
